According to ChEMBL document CHEMBL3132769, “Fragment growing to retain or alter the selectivity of anchored kinase hinge-binding fragments” (Medchemcomm, 2014):

Experiments:
[1] = target: Receptor-type tyrosine-protein kinase FLT3 (Homo sapiens) (UniProt P36888); assay: Inhibition of human FLT3 catalytic domain expressed in baculovirus assessed as substrate phosphorylation using fluorescence-labelled peptides as substrate at 0.06 uM after 90 mins by microfluidic peptide phosphorylation assay
[2] = target: Tyrosine-protein kinase ABL2 (Homo sapiens) (UniProt P42684); assay: Inhibition of human truncated Arg expressed in baculovirus assessed as substrate phosphorylation using fluorescence-labelled peptides as substrate at 0.06 uM after 90 mins by microfluidic peptide phosphorylation assay
Tyrosine-protein kinase ABL2 (Homo sapiens), sequence (P42684 whole entry, the tested form may be a part): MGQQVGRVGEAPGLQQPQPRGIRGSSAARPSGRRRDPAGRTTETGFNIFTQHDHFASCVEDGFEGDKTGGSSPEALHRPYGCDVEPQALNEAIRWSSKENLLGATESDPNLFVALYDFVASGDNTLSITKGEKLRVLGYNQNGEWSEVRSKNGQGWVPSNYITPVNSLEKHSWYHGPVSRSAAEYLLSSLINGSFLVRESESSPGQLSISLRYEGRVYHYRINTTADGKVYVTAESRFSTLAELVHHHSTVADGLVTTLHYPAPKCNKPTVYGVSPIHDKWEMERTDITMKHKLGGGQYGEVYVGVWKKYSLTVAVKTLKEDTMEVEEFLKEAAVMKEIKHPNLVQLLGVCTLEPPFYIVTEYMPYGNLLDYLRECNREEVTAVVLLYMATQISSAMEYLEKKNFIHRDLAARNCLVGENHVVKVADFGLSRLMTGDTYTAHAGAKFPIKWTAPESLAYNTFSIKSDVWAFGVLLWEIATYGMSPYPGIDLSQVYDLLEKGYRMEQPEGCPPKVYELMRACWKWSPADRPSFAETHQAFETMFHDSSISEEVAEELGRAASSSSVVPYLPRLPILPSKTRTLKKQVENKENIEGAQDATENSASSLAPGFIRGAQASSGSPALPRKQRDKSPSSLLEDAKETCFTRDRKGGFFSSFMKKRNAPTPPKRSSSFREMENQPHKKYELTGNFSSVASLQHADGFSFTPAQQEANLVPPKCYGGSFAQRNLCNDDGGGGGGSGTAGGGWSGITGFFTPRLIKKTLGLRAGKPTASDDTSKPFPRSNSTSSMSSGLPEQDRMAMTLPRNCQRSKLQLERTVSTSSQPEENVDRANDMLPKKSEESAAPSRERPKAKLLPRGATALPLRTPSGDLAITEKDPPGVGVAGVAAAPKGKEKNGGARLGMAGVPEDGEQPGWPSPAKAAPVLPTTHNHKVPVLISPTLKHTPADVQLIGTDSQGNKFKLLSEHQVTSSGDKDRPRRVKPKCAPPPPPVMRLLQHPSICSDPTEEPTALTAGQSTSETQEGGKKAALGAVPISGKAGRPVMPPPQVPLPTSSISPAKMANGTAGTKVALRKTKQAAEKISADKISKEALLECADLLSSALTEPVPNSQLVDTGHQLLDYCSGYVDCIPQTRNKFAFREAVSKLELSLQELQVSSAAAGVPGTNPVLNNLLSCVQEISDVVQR

[3] = target: T1, Serine/threonine-protein kinase BRSK1 (Homo sapiens) (UniProt Q8TDC3); assay: Inhibition of human full length BRSK1 expressed in baculovirus assessed as substrate phosphorylation using fluorescence-labelled peptides as substrate at 70 uM after 90 mins by microfluidic peptide phosphorylation assay
T1 sequence (whole entry): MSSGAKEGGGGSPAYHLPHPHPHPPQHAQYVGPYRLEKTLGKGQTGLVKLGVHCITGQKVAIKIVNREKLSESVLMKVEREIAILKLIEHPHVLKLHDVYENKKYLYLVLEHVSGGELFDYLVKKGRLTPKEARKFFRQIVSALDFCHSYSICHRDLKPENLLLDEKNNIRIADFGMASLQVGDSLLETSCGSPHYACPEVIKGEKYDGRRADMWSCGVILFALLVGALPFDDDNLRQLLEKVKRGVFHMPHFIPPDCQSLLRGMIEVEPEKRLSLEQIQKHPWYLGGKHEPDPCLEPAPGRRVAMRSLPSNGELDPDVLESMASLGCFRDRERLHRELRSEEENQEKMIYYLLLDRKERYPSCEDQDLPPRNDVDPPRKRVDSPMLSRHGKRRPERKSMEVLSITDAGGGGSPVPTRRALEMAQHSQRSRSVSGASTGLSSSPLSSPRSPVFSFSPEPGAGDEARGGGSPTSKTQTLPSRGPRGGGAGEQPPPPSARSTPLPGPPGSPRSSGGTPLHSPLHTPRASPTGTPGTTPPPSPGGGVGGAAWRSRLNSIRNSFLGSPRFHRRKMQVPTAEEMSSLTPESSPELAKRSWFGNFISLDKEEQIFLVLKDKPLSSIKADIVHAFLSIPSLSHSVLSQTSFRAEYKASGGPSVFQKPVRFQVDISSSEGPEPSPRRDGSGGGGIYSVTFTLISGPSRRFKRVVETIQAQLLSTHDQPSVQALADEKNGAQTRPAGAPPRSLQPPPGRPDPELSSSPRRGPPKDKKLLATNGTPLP

[4] = target: Protein kinase C beta type (Homo sapiens) (UniProt P05771); assay: Inhibition of human truncated PKC beta1 expressed in baculovirus assessed as substrate phosphorylation using fluorescence-labelled peptides as substrate at 70 uM after 90 mins by microfluidic peptide phosphorylation assay
Protein kinase C beta type (Homo sapiens), sequence (P05771 2-671 limits assumed): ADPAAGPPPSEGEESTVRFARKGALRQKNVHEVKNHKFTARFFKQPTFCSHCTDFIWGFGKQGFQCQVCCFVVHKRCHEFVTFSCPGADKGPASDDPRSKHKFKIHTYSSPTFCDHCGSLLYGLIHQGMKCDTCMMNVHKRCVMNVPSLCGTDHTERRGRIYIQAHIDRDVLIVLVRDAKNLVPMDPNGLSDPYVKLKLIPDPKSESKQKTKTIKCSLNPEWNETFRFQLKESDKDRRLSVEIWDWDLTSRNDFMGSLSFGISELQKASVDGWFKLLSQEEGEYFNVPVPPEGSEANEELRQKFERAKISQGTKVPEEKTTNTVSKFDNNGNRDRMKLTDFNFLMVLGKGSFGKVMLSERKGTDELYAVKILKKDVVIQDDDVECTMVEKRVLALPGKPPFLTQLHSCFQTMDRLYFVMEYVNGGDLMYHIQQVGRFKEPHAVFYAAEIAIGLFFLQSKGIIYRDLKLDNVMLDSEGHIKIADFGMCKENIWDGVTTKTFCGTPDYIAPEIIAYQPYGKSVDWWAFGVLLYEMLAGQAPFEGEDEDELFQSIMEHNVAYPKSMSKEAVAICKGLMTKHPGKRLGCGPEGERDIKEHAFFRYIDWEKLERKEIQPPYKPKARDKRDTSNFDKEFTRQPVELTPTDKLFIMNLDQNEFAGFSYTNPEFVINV

[5] = target: Calcium/calmodulin-dependent protein kinase type II subunit delta (Homo sapiens) (UniProt Q13557); assay: Inhibition of human full length CAMK2D expressed in baculovirus assessed as substrate phosphorylation using fluorescence-labelled peptides as substrate at 95 uM after 90 mins by microfluidic peptide phosphorylation assay
Calcium/calmodulin-dependent protein kinase type II subunit delta (Homo sapiens), sequence (Q13557 whole entry): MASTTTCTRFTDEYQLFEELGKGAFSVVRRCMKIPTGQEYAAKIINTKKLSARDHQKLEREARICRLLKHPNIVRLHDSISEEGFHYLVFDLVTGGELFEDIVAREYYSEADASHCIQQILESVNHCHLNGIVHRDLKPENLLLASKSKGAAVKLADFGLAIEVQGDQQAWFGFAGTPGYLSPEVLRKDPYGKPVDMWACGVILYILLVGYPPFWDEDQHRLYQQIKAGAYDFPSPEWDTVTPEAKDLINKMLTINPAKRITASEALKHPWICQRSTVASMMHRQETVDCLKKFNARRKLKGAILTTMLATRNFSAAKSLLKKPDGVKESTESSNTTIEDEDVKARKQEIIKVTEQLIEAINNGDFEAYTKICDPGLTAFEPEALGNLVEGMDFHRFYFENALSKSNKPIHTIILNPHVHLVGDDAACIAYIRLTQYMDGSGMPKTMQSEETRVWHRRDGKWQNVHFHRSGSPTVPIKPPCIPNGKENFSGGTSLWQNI

[6] = target: Tyrosine-protein kinase Fyn (Homo sapiens) (UniProt P06241); assay: Inhibition of human full length FYN expressed in baculovirus assessed as substrate phosphorylation using fluorescence-labelled peptides as substrate at 95 uM after 90 mins by microfluidic peptide phosphorylation assay
Tyrosine-protein kinase Fyn (Homo sapiens), sequence (P06241 2-537 limits assumed): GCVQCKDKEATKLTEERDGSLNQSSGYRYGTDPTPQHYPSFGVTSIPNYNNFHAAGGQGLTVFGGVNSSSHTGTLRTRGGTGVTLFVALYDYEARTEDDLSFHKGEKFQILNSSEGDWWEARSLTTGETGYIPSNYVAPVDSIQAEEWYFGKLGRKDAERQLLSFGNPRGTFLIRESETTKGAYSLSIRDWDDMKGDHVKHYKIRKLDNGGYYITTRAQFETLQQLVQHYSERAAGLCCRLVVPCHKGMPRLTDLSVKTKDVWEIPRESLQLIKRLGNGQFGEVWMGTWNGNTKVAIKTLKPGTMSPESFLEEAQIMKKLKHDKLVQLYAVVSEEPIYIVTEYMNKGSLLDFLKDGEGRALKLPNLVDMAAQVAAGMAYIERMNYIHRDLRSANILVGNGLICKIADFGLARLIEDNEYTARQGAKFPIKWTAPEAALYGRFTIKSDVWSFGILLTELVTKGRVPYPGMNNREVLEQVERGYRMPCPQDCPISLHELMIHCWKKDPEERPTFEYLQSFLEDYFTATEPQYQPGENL

[7] = system: Tyrosine-protein kinase ABL1 (Homo sapiens), P00519 [T315I]; assay: Inhibition of human truncated ABL T315I mutant expressed in baculovirus assessed as substrate phosphorylation using fluorescence-labelled peptides as substrate at 2 uM after 90 mins by microfluidic peptide phosphorylation assay
[8] = target: T2, Testis-specific serine/threonine-protein kinase 2 (Homo sapiens) (UniProt Q96PF2); assay: Inhibition of human full length TSSK2 expressed in baculovirus assessed as substrate phosphorylation using fluorescence-labelled peptides as substrate at 2 uM after 90 mins by microfluidic peptide phosphorylation assay
T2 sequence (whole entry): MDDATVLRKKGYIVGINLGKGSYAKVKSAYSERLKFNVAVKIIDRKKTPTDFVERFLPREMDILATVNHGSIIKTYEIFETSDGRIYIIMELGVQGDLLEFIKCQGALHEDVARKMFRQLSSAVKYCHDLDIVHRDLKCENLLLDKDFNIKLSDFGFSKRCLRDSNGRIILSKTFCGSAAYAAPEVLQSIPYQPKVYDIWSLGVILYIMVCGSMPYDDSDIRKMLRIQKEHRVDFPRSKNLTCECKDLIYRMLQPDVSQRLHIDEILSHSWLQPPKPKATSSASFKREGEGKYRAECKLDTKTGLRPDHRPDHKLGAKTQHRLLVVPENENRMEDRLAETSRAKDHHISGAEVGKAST

[9] = system: Fibroblast growth factor receptor 2 (Homo sapiens), P21802 [N549H]; assay: Inhibition of human FGFR2 N549H mutant catalytic domain expressed in baculovirus assessed as substrate phosphorylation using fluorescence-labelled peptides as substrate at […] after 90 mins by microfluidic peptide phosphorylation assay
Fibroblast growth factor receptor 2 (Homo sapiens), P21802 [N549H], sequence (P21802 whole entry N549H, the tested form may be a part): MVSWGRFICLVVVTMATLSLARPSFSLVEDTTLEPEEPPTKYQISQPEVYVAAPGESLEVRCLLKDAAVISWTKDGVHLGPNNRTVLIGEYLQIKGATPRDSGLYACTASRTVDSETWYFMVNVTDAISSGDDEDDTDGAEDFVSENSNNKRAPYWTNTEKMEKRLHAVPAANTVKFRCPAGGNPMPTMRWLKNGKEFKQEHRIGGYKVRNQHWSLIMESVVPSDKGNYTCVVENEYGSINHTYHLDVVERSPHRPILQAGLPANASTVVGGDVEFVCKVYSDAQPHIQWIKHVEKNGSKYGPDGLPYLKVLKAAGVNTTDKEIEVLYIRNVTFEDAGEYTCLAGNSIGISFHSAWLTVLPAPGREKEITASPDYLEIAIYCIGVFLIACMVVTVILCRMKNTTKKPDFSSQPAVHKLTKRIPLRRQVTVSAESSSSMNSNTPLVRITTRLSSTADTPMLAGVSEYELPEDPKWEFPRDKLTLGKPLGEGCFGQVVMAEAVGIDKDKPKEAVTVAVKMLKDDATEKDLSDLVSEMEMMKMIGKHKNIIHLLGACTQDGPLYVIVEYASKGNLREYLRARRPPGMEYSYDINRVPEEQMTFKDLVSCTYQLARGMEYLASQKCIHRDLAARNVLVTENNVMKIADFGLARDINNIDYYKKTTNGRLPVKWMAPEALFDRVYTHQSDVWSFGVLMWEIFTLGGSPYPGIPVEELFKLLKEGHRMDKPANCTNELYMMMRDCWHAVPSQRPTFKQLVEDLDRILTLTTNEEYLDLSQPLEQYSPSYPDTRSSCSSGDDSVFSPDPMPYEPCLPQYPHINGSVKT

[10] = target: Insulin receptor (Homo sapiens) (UniProt P06213); assay: Inhibition of human INSR catalytic domain expressed in baculovirus assessed as substrate phosphorylation using fluorescence-labelled peptides as substrate at […] after 90 mins by microfluidic peptide phosphorylation assay
[11] = target: T3, Serine/threonine-protein kinase DCLK2 (Homo sapiens) (UniProt Q8N568); assay: Inhibition of human full length DCAMKL2 expressed in baculovirus assessed as substrate phosphorylation using fluorescence-labelled peptides as substrate at […] after 90 mins by microfluidic peptide phosphorylation assay
T3 sequence (whole entry): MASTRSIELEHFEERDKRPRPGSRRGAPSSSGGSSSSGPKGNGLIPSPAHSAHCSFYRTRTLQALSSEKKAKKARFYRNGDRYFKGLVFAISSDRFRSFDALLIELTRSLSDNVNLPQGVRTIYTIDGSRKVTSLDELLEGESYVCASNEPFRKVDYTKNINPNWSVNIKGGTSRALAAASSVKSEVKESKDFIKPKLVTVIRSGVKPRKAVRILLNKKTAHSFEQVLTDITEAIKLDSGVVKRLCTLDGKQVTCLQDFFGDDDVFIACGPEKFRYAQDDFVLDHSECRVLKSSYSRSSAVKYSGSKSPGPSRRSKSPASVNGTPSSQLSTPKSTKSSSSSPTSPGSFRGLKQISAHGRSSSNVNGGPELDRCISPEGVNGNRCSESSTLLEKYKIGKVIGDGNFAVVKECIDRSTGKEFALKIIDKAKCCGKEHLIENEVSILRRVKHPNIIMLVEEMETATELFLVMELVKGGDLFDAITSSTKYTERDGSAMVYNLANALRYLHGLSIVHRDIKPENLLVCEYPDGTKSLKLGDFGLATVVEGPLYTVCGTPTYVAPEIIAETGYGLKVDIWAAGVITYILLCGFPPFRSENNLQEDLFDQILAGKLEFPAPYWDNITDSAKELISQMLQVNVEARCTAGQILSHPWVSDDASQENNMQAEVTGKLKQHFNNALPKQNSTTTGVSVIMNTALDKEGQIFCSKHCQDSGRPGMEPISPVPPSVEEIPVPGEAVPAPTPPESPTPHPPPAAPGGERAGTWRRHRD

Receptor-type tyrosine-protein kinase FLT3 (Homo sapiens), sequence (P36888 whole entry, the tested form may be a part): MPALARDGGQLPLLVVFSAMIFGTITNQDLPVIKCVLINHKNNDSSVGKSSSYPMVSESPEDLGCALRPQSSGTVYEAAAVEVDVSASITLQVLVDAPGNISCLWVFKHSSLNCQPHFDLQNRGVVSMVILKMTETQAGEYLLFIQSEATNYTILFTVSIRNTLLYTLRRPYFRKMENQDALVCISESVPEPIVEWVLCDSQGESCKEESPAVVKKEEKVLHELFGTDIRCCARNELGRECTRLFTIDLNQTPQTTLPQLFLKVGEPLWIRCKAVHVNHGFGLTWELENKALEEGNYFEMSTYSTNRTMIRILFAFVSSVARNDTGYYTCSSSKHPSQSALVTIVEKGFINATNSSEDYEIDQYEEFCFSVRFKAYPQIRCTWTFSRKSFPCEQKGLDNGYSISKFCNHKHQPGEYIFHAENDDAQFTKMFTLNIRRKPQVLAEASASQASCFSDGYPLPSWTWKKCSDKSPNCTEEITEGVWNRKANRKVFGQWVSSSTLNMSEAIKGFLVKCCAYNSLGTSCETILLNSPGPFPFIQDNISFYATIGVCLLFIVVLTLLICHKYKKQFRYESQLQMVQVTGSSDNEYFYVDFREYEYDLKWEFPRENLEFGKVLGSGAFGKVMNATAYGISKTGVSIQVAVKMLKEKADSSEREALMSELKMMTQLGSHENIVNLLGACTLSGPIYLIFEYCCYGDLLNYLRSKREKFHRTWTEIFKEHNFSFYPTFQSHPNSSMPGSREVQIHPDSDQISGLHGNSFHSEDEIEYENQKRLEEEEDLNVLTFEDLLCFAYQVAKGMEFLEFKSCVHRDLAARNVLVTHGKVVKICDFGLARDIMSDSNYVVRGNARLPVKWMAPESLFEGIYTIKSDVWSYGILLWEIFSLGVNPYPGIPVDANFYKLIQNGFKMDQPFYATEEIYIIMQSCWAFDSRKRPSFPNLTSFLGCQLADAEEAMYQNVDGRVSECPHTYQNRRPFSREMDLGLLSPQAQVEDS

Structure (SMILES): NC1(Cc2ccc(Cl)cc2)CCN(c2ncnc3[nH]ccc23)CC1
- inhibition [1]: 0%
- inhibition [2]: 5%

Structure (SMILES): CNCc1ccc(-c2ncnc3[nH]cnc23)cc1
- inhibition [3]: 29.5%
- inhibition [4]: 73.5%

Structure (SMILES): NCCc1ccc(-c2ncnc3[nH]cnc23)cc1
- inhibition [5]: 45.5%
- inhibition [6]: 64.5%

Structure (SMILES): NC1CCN(c2ncnc3[nH]ccc23)CC1
- inhibition [7]: 1%
- inhibition [8]: 6.5%

Structure (SMILES): COC(=O)c1cnc(Nc2cnc(C#N)cn2)cc1NCC1CCNCC1
- inhibition [9]: 6.5%
- inhibition [10]: 7%
- inhibition [11]: 4.5%
